Counter-ions that a name gives are not always drawn.
Experiments:
Type in all cases: physicochemical
[1] = Evaluation of hygroscopicity: water content by Karl Fisher method under various humidity conditions; conditions: 25° C.
[2] = Stability in a liquid state (distilled water, 25° C., 4 weeks, protected from light); conditions: dissolved in distilled water, 4 weeks at 25° C.
Description: The observation was made under the same conditions as in the HPLC analysis for evaluating the thermal stability of samples in a solid state.

[3] = Evaluation of photostability (exposed to sunlight at 25° C. for 4 weeks, HPLC content); conditions: for Colour of the surface after exposure to light: white at initial stage, exposed to sunlight at 25° C., 4 weeks; for Content (HPLC): stored at 25° C. for 4 weeks with light exposure
Experimental: To evaluate photostability, a change in the content (%, HPLC) of each sample was observed under the same HPLC analysis conditions as in the evaluation of thermal stability. Photostability is quite an important factor in therapeutic agents for treating hypertension because they are administered to patients over a prolonged period of dosage.

[4] = Thermal stability in a solid state, acceleration test at 60° C. (HPLC content)
Experimental: High Performance Liquid Chromatography (HPLC) analysis was conducted under the following conditions:
Detector: UV absorption (237 nm)
Column: Octadesyl silica gel C18 (4.6 mm×150 mm, 5 μm)
Mobile phase: Potassium dihydrogen phosphate monobasic (0.03 M): Methanol=4:6 (by volume)

SMILES | Water content (Karl Fisher method) ([1]; initial stage) [%] | Water content (Karl Fisher method) ([1]; relative humidity 25%, 1 week) [%] | Water content (Karl Fisher method) ([1]; relative humidity 60%, 1 week) [%] | Water content (Karl Fisher method) ([1]; relative humidity 75%, 1 week) [%] | Water content (Karl Fisher method) ([1]; relative humidity 95%, 1 week) [%] | Change in the content (HPLC) [2] | Decomposed products [2] | Colour of the surface after exposure to light [3] | Content (HPLC) ([4]; 60° C., 1 week) [%] | Content (HPLC) ([4]; 60° C., 2 weeks) [%] | Content (HPLC) ([4]; 60° C., 4 weeks) [%] | Content (HPLC) ([4]; initial stage) [%] | Content (HPLC) [3] [%]
CCOC(=O)C1=C(COCCN)NC(C)=C(C(=O)OC)C1c1ccccc1Cl (stereo not drawn) [Adipic acid salt, crystalline adipic acid salt of amlodipine] | 0.10 | 0.10 | 0.10 | 0.14 | 0.16 | no significant changes in the content | no decomposed products | remained white | 99.8 | 99.7 | 99.7 | 99.8 | –
CCOC(=O)C1=C(COCCN)NC(C)=C(C(=O)OC)C1c1ccccc1Cl (stereo not drawn) [Tosylate salt, Amlodipine p-Toluene Sulfonate] | – | – | – | – | – | – | – | – | – | – | – | – | 72.0
CCOC(=O)C1=C(COCCN)NC(C)=C(C(=O)OC)C1c1ccccc1Cl (stereo not drawn) [Besylate salt, Amlodipine Besylate, reference compound] | 0.14 | 0.10 | 0.09 | 0.15 | 0.17 | no significant changes in the content | no decomposed products | turned yellow | 99.6 | – | – | 99.6 | 82.5
